According to patent publication US11981661B2, “Heterocyclic compounds” (Hoffmann-La Roche Inc., priority 2020, dated 2024):

Target: T1, MAGL (Homo sapiens, UniProt Q99685)
T1 sequence (Q99685 1-303): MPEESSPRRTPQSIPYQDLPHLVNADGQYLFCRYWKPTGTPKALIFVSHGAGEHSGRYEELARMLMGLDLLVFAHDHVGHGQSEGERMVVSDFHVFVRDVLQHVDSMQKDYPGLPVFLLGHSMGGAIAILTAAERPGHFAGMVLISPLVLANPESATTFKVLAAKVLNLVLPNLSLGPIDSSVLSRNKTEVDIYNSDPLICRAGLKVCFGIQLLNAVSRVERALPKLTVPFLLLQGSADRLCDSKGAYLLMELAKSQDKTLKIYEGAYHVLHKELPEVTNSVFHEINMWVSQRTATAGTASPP
Experiment: 2-AG assay (MAGL inhibitory activity, hydrolysis of 2-arachidonoylglycerol followed by mass spectrometry)
Type: biochemical
Conditions: 50 pM MAGL, 8 μM 2-arachidonoylglycerol, 15 min preincubation, 30 min incubation at RT, concentration range 12.5 μM to 0.8 pM
Summary of the method: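 50 pM MAGL preincubated 15 min at RT with compound (12.5 μM to 0.8 pM) in 50 mM TRIS, 1 mM EDTA, 0.01% Tween, then 8 μM 2-arachidonoylglycerol for 30 min at RT. Arachidonic acid measured by RapidFire SPE–triple quadrupole MS in negative mode, normalised to d8-arachidonic acid.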

SMILES	IC50
O=C1N[C@H](CCC(=O)N2CC(C#Cc3cccc(Cl)c3)C2)CO1 [Example 33, (4R)-4-[3-[3-[2-(3-Chlorophenyl)ethynyl]azetidin-1-yl]-3-oxo-propyl]oxazolidin-2-one]	12 nM
O=C1N[C@@H](COC(=O)N2CC(OCc3ccc(C(F)(F)F)cc3F)C2)CO1 [Example 55, [(4R)-2-Oxooxazolidin-4-yl]methyl 3-[[2-fluoro-4-(trifluoromethyl)phenyl]methoxy] azetidine-1-carboxylate]	33 nM
O=C1N[C@H](CCC(=O)N2CC(c3ncc(N4CCC(C(F)(F)F)C4)cn3)C2)CO1 (stereo partly drawn) [Example 106, (4R)-4-[3-Oxo-3-[3-[5-[3-(trifluoro-methyl)pyrrolidin-1-yl]pyrimidin-2-yl]azetidin-1-yl]propyl]oxazolidin-2-one]	729 nM
COC(=O)c1cc(Cl)ccc1Oc1ccc(C2CN(C(=O)CC[C@@H]3COC(=O)N3)C2)cn1 [Example 199, Methyl 5-chloro-2-[[5-[1-[3-[(4R)-2-oxooxazolidin-4-yl]propanoyl]azetidin-3-yl]-2-pyridyl]oxy]benzoate]	14 nM
O=C(CCc1cccc(=O)[nH]1)N1CC(OCc2ccc(C(F)(F)F)cc2F)C1 [Example 48, 6-[3-[3-[[2-Fluoro-4-(trifluoromethyl)phenyl]methoxy]azetidin-1-yl]-3-oxo-propyl]-1H-pyridin-2-one]	598 nM
CS(=O)(=O)c1cccc(CN2CCC3(CC2)CN(C(=O)CC[C@@H]2COC(=O)N2)C3)c1 [Example 193, (4R)-4-[3-[7-[(3-Methyl-sulfonylphenyl)methyl]-2,7-diazaspiro[3.5]nonan-2-yl]-3-oxo-propyl] oxazolidin-2-one]	794 nM
CC(C)(C)c1ccc(C2CN(C(=O)CCC3CCC(=O)N3)C2)cc1 (single isomer, unassigned; (-)) [Example 3, (−)-5-[3-[3-(4-tert-Butylphenyl)azetidin-1-yl]-3-oxo-propyl]pyrrolidin-2-one]	273 nM
CS(=O)(=O)c1cc(F)ccc1OC1CCC2(CC1)CN(C(=O)CC[C@@H]1COC(=O)N1)C2 [Example 137, (4R)-4-[3-[7-(4-Fluoro-2-methyl-sulfonyl-phenoxy)-2-azaspiro[3.5]nonan-2-yl]-3-oxo-propyl] oxazolidin-2-one]	43 nM
O=C1CCC(CCC(=O)N2CC(c3ccc(-c4ccc(F)cc4F)cc3)C2)N1 (single isomer, unassigned; (+)) [Example 10, (+)-5-[3-[3-[4-(2,4-Difluorophenyl)phenyl]azetidin-1-yl]-3-oxo-propyl]pyrrolidin-2-one]	5 nM
O=C1CC[C@@H](COC(=O)N2CC(OCc3ccc(C(F)(F)F)cc3F)C2)N1 [Example 52, [(2S)-5-Oxopyrrolidin-2-yl]methyl 3-[[2-fluoro-4-(trifluoromethyl)phenyl]methoxy]azetidine-1-carboxylate]	167 nM
O=C(CCCc1cnn[nH]1)N1CC(c2ccc(C3(C(F)(F)F)CC3)cc2)C1 [Example 40, 4-(1H-Triazol-5-yl)-1-[3-[4-[1-(trifluoro-methyl)cyclopropyl]phenyl]azetidin-1-yl]butan-1-one]	21 nM

More lines, now with the values ahead:

IC50	SMILES
279 nM	O=C1N[C@H](CCC(=O)N2CC(NCc3cc(C(F)(F)F)ccc3F)C2)CO1 [Example 156, (4R)-4-[3-[3-[[2-Fluoro-5-(trifluoro-methyl)phenyl]methylamino]azetidin-1-yl]-3-oxo-propyl] oxazolidin-2-one]
1 nM	O=C1N[C@H](CCC(=O)N2CC(c3ccc([C@H]4CC[C@@H](C(F)(F)F)CC4)nc3)C2)CO1 (single isomer, unassigned) [Example 200]
27 nM	O=C1N[C@H](CCC(=O)N2CC(OCc3cccc(S(=O)(=O)C(F)(F)F)c3)C2)CO1 [Example 167, (4R)-4-[3-Oxo-3-[3-[[3-(trifluoro-methylsulfonyl)phenyl]methoxy]azetidin-1-yl]propyl]oxazolidin-2-one]
26 nM	O=C1CCC(CCC(=O)N2CC(c3ccc(CC(F)(F)F)cc3)C2)N1 (single isomer, unassigned) [Example 8, (+)- or (−)-5-[3-Oxo-3-[3-[4-(2,2,2-trifluoroethyl)phenyl]azetidin-1-yl]propyl]pyrrolidin-2-one]
19 nM	CS(=O)(=O)c1cc(C2CN(C(=O)CC[C@@H]3COC(=O)N3)C2)ccc1-c1ccc(Cl)cc1F [Example 120, (4R)-4-[3-[3-[4-(4-Chloro-2-fluoro-phenyl)-3-methylsulfonyl-phenyl]azetidin-1-yl]-3-oxo-propyl]oxazolidin-2-one]
3 nM	CS(=O)(=O)c1cc(Cl)cnc1-c1ccc(C2CN(C(=O)CC[C@@H]3COC(=O)N3)C2)cc1 [Example 115, (4R)-4-[3-[3-[4-(5-Chloro-3-methylsulfonyl-2-pyridyl)phenyl]azetidin-1-yl]-3-oxo-propyl]oxazolidin-2-one]
1 nM	O=C1N[C@H](CCC(=O)N2CC(c3ccc(N4CC5(CCCC5)C4)cc3)C2)CO1 [Example 131]
57 nM	N#CCS(=O)(=O)c1ccc(C2CN(C(=O)CC[C@@H]3COC(=O)N3)C2)cc1 [Example 75, 2-[4-[1-[3-[(4R)-2-Oxooxazolidin-4-yl]propanoyl]azetidin-3-yl]phenyl]sulfonyl-acetonitrile]
1800 nM	O=C1N[C@H](CCC(=O)N2CC(c3ccc(Oc4nccc(C(F)(F)F)n4)cc3)C2)CO1 [Example 127, (4R)-4-[3-Oxo-3-[3-[4-[4-(trifluoro-methyl)pyrimidin-2-yl]oxyphenyl]azetidin-1-yl]propyl]oxazolidin-2-one]
0.26 nM	CS(=O)(=O)c1ccc(-c2ccc(C3CN(C(=O)CC[C@@H]4COC(=O)N4)C3)cc2)c(C(F)(F)F)c1 [Example 128, (4R)-4-[3-[3-[4-[4-Methyl-sulfonyl-2-(trifluoromethyl)phenyl]phenyl]azetidin-1-yl]-3-oxo-propyl] oxazolidin-2-one]
160 nM	CS(=O)(=O)c1ccc(-c2ccc(C3CN(C(=O)CC[C@@H]4COC(=O)N4)C3)cn2)c(Cl)c1 [Example 116, (4R)-4-[3-[3-[6-(2-Chloro-4-methylsulfonyl-phenyl)-3-pyridyl]azetidin-1-yl]-3-oxo-propyl]oxazolidin-2-one]
1 nM	O=C1N[C@H](CCC(=O)N2CC(c3ccc(Oc4ccc(F)cc4)cc3)C2)CO1 [Example 30, (4R)-4-[3-[3-[4-(4-Fluorophenoxy)phenyl]azetidin-1-yl]-3-oxo-propyl]oxazolidin-2-one]
81 nM	O=C1N[C@H](CCC(=O)N2CC(c3ccc(S(=O)(=O)C(F)(F)F)cc3)C2)CO1 [Example 76, (4R)-4-[3-Oxo-3-[3-[4-(trifluoro-methylsulfonyl)phenyl]azetidin-1-yl]propyl]oxazolidin-2-one]
3 nM	CS(=O)(=O)c1ncc(C(F)(F)F)cc1-c1ccc(C2CN(C(=O)CC[C@@H]3COC(=O)N3)C2)cc1 [Example 124, (4R)-4-[3-[3-[4-[2-Methyl-sulfonyl-5-(trifluoromethyl)-3-pyridyl]phenyl]azetidin-1-yl]-3-oxo-propyl] oxazolidin-2-one]
170 nM	O=C1N[C@H](CCC(=O)N2CC(c3ccc(N4CCC(O)(C(F)(F)F)C4)nc3)C2)CO1 (stereo partly drawn) [Example 205, (+)- or (−)-(4R)-4-[3-[3-[6-[3-Hydroxy-3-(trifluoromethyl)pyrrolidin-1-yl]-3-pyridyl]azetidin-1-yl]-3-oxo-propyl]oxazolidin-2-one]
